The source of these data is the NIST ThermoML archive (doi:10.1016/j.fluid.2016.05.030).

Numbers after ± are expanded uncertainties.

What is called viscosity is the internal friction of a fluid under shear. What is called mass density is mass per unit of volume.

A short description of one data set: molar heat capacity at constant pressure. To be noted: 298.15 K; 101.33 kPa; Liquid; Drop calorimetry.
For the compound `CCCCCCCCCc1cccc[n+]1CC.O=S(=O)([N-]S(=O)(=O)C(F)(F)F)C(F)(F)F`, the “molar heat capacity at constant pressure” value was 778.5 ± 18 J/K/mol.
As to `CCc1cccc[n+]1CC.O=S(=O)([N-]S(=O)(=O)C(F)(F)F)C(F)(F)F` [1,2-diethylpyridin-1-ium bis((trifluoromethyl)sulfonyl)imide], the “molar heat capacity at constant pressure” value is reported as 566.1 ± 13 J/K/mol.
On to `CCCCCCCCCCc1cccc[n+]1CC.O=S(=O)([N-]S(=O)(=O)C(F)(F)F)C(F)(F)F`, for which the “molar heat capacity at constant pressure” value is recorded as 811.2 ± 19 J/K/mol.
In the case of `CCCc1cccc[n+]1CC.O=S(=O)([N-]S(=O)(=O)C(F)(F)F)C(F)(F)F`, the “molar heat capacity at constant pressure” value turned out to be 593.9 ± 14 J/K/mol.
`CCCCc1cccc[n+]1CC.O=S(=O)([N-]S(=O)(=O)C(F)(F)F)C(F)(F)F`: the “molar heat capacity at constant pressure” value worked out at 623.6 ± 14 J/K/mol.
As for `CCCCCCCc1cccc[n+]1CC.O=S(=O)([N-]S(=O)(=O)C(F)(F)F)C(F)(F)F`, the “molar heat capacity at constant pressure” value stood at 717.5 ± 17 J/K/mol.
With `CCCCCCCCc1cccc[n+]1CC.O=S(=O)([N-]S(=O)(=O)C(F)(F)F)C(F)(F)F`, the “molar heat capacity at constant pressure” value was determined as 749.4 ± 17 J/K/mol.
Still for that read-out and setting: the result for `CCCCCc1cccc[n+]1CC.O=S(=O)([N-]S(=O)(=O)C(F)(F)F)C(F)(F)F` reads 652.7 ± 15 J/K/mol; that for `CCCCCCc1cccc[n+]1CC.O=S(=O)([N-]S(=O)(=O)C(F)(F)F)C(F)(F)F`, 685.5 ± 16 J/K/mol.

Assay in another data set: not given
The following applies: 293.15 K; 101.33 kPa; Liquid; Concentric cylinders viscometry.
For `CCc1cccc[n+]1CC.O=S(=O)([N-]S(=O)(=O)C(F)(F)F)C(F)(F)F` [1,2-diethylpyridin-1-ium bis((trifluoromethyl)sulfonyl)imide], the viscosity is on record as 87.87 ± 0.82 mPa·s.
Still for that read-out and setting: next, `CCCc1cccc[n+]1CC.O=S(=O)([N-]S(=O)(=O)C(F)(F)F)C(F)(F)F`: 139.89 ± 2.1 mPa·s; `CCCCc1cccc[n+]1CC.O=S(=O)([N-]S(=O)(=O)C(F)(F)F)C(F)(F)F`: 146.84 ± 2.3 mPa·s; `CCCCCCCc1cccc[n+]1CC.O=S(=O)([N-]S(=O)(=O)C(F)(F)F)C(F)(F)F`: 180.53 ± 3.3 mPa·s.
The same measure, in the same setting: next, `CCCCCCCCc1cccc[n+]1CC.O=S(=O)([N-]S(=O)(=O)C(F)(F)F)C(F)(F)F`: 216.19 ± 4.4 mPa·s; `CCCCCc1cccc[n+]1CC.O=S(=O)([N-]S(=O)(=O)C(F)(F)F)C(F)(F)F`: 144.37 ± 2.2 mPa·s; `CCCCCCc1cccc[n+]1CC.O=S(=O)([N-]S(=O)(=O)C(F)(F)F)C(F)(F)F`: 159.82 ± 2.7 mPa·s.

The data set is the same for the next values; noted with them: 293.15 K; 101.33 kPa; Liquid; Vibrating tube method.
On to `CCc1cccc[n+]1CC.O=S(=O)([N-]S(=O)(=O)C(F)(F)F)C(F)(F)F` [1,2-diethylpyridin-1-ium bis((trifluoromethyl)sulfonyl)imide], for which the mass density is given as 1475.5 ± 1.2 kg/m3.
Regarding `CCCc1cccc[n+]1CC.O=S(=O)([N-]S(=O)(=O)C(F)(F)F)C(F)(F)F`, the mass density is listed as 1452 ± 1.2 kg/m3.
Still for that read-out and setting: next, `CCCCc1cccc[n+]1CC.O=S(=O)([N-]S(=O)(=O)C(F)(F)F)C(F)(F)F`: 1413.7 ± 1.1 kg/m3; `CCCCCCCc1cccc[n+]1CC.O=S(=O)([N-]S(=O)(=O)C(F)(F)F)C(F)(F)F`: 1325.1 ± 1.1 kg/m3.
On the same count and under the same terms, next, `CCCCCCCCc1cccc[n+]1CC.O=S(=O)([N-]S(=O)(=O)C(F)(F)F)C(F)(F)F`: 1301.7 ± 1.1 kg/m3.
As for `CCCCCc1cccc[n+]1CC.O=S(=O)([N-]S(=O)(=O)C(F)(F)F)C(F)(F)F`, the mass density stood at 1375.6 ± 1.1 kg/m3.
Turning to `CCCCCCc1cccc[n+]1CC.O=S(=O)([N-]S(=O)(=O)C(F)(F)F)C(F)(F)F`, the mass density is on record as 1348.7 ± 1.1 kg/m3.

Still in this data set, the particulars now being: 298.15 K; 101.33 kPa; Liquid; Concentric cylinders viscometry.
Consider `CCc1cccc[n+]1CC.O=S(=O)([N-]S(=O)(=O)C(F)(F)F)C(F)(F)F` [1,2-diethylpyridin-1-ium bis((trifluoromethyl)sulfonyl)imide], for which the viscosity is 68.77 ± 0.47 mPa·s.
The same measure, in the same setting: the result for `CCCc1cccc[n+]1CC.O=S(=O)([N-]S(=O)(=O)C(F)(F)F)C(F)(F)F` reads 105.02 ± 1.2 mPa·s; that for `CCCCc1cccc[n+]1CC.O=S(=O)([N-]S(=O)(=O)C(F)(F)F)C(F)(F)F`, 109.82 ± 1.3 mPa·s; that for `CCCCCCCc1cccc[n+]1CC.O=S(=O)([N-]S(=O)(=O)C(F)(F)F)C(F)(F)F`, 134.1 ± 1.9 mPa·s.
On the same count and under the same terms, next, `CCCCCCCCc1cccc[n+]1CC.O=S(=O)([N-]S(=O)(=O)C(F)(F)F)C(F)(F)F`: 159.29 ± 2.6 mPa·s.
As for `CCCCCc1cccc[n+]1CC.O=S(=O)([N-]S(=O)(=O)C(F)(F)F)C(F)(F)F`, the viscosity stood at 108.78 ± 1.3 mPa·s.
On to `CCCCCCc1cccc[n+]1CC.O=S(=O)([N-]S(=O)(=O)C(F)(F)F)C(F)(F)F`, for which the viscosity was found to be 119.41 ± 1.6 mPa·s.

Staying with this data set, now noted: 298.15 K; 101.33 kPa; Liquid; Vibrating tube method.
As to `CCc1cccc[n+]1CC.O=S(=O)([N-]S(=O)(=O)C(F)(F)F)C(F)(F)F` [1,2-diethylpyridin-1-ium bis((trifluoromethyl)sulfonyl)imide], the mass density came out at 1470.6 ± 1.2 kg/m3.
In the case of `CCCc1cccc[n+]1CC.O=S(=O)([N-]S(=O)(=O)C(F)(F)F)C(F)(F)F`, the mass density is reported as 1447.2 ± 1.2 kg/m3.
Still for that read-out and setting: next, `CCCCc1cccc[n+]1CC.O=S(=O)([N-]S(=O)(=O)C(F)(F)F)C(F)(F)F`: 1409.1 ± 1.1 kg/m3; `CCCCCCCc1cccc[n+]1CC.O=S(=O)([N-]S(=O)(=O)C(F)(F)F)C(F)(F)F`: 1320.8 ± 1.1 kg/m3; `CCCCCCCCc1cccc[n+]1CC.O=S(=O)([N-]S(=O)(=O)C(F)(F)F)C(F)(F)F`: 1297.4 ± 1.1 kg/m3.
Same read-out and setting: the result for `CCCCCc1cccc[n+]1CC.O=S(=O)([N-]S(=O)(=O)C(F)(F)F)C(F)(F)F` reads 1371.1 ± 1.1 kg/m3; that for `CCCCCCc1cccc[n+]1CC.O=S(=O)([N-]S(=O)(=O)C(F)(F)F)C(F)(F)F`, 1344.3 ± 1.1 kg/m3.

Still in this data set, the particulars now being: 303.15 K; 101.33 kPa; Liquid; Concentric cylinders viscometry.
Take `CCc1cccc[n+]1CC.O=S(=O)([N-]S(=O)(=O)C(F)(F)F)C(F)(F)F` [1,2-diethylpyridin-1-ium bis((trifluoromethyl)sulfonyl)imide]: the viscosity is reported as 54.95 ± 0.3 mPa·s.
Still for that read-out and setting: the result for `CCCc1cccc[n+]1CC.O=S(=O)([N-]S(=O)(=O)C(F)(F)F)C(F)(F)F` reads 81.09 ± 0.69 mPa·s; that for `CCCCc1cccc[n+]1CC.O=S(=O)([N-]S(=O)(=O)C(F)(F)F)C(F)(F)F`, 84.49 ± 0.76 mPa·s.
For `CCCCCCCc1cccc[n+]1CC.O=S(=O)([N-]S(=O)(=O)C(F)(F)F)C(F)(F)F`, the viscosity is given as 102.47 ± 1.1 mPa·s.
On the same count and under the same terms, the result for `CCCCCCCCc1cccc[n+]1CC.O=S(=O)([N-]S(=O)(=O)C(F)(F)F)C(F)(F)F` reads 120.76 ± 1.6 mPa·s; that for `CCCCCc1cccc[n+]1CC.O=S(=O)([N-]S(=O)(=O)C(F)(F)F)C(F)(F)F`, 83.99 ± 0.75 mPa·s.
For `CCCCCCc1cccc[n+]1CC.O=S(=O)([N-]S(=O)(=O)C(F)(F)F)C(F)(F)F`, the viscosity came out at 91.77 ± 0.91 mPa·s.

The same data set, now with this note: 303.15 K; 101.33 kPa; Liquid; Vibrating tube method.
As for `CCc1cccc[n+]1CC.O=S(=O)([N-]S(=O)(=O)C(F)(F)F)C(F)(F)F` [1,2-diethylpyridin-1-ium bis((trifluoromethyl)sulfonyl)imide], the mass density was determined as 1465.8 ± 1.2 kg/m3.
Still for that read-out and setting: the result for `CCCc1cccc[n+]1CC.O=S(=O)([N-]S(=O)(=O)C(F)(F)F)C(F)(F)F` reads 1442.5 ± 1.2 kg/m3.
Consider `CCCCc1cccc[n+]1CC.O=S(=O)([N-]S(=O)(=O)C(F)(F)F)C(F)(F)F`, for which the mass density came to 1404.5 ± 1.1 kg/m3.
Regarding `CCCCCCCc1cccc[n+]1CC.O=S(=O)([N-]S(=O)(=O)C(F)(F)F)C(F)(F)F`, the mass density is given as 1316.5 ± 1.1 kg/m3.
Consider `CCCCCCCCc1cccc[n+]1CC.O=S(=O)([N-]S(=O)(=O)C(F)(F)F)C(F)(F)F`, for which the mass density came to 1293.2 ± 1.1 kg/m3.
Consider `CCCCCc1cccc[n+]1CC.O=S(=O)([N-]S(=O)(=O)C(F)(F)F)C(F)(F)F`, for which the mass density is 1366.6 ± 1.1 kg/m3.
On to `CCCCCCc1cccc[n+]1CC.O=S(=O)([N-]S(=O)(=O)C(F)(F)F)C(F)(F)F`, for which the mass density is listed as 1339.9 ± 1.1 kg/m3.

Staying with this data set, now noted: 308.15 K; 101.33 kPa; Liquid; Concentric cylinders viscometry.
With `CCc1cccc[n+]1CC.O=S(=O)([N-]S(=O)(=O)C(F)(F)F)C(F)(F)F` [1,2-diethylpyridin-1-ium bis((trifluoromethyl)sulfonyl)imide], the viscosity is recorded as 44.69 ± 0.28 mPa·s.
For the compound `CCCc1cccc[n+]1CC.O=S(=O)([N-]S(=O)(=O)C(F)(F)F)C(F)(F)F`, the viscosity amounted to 63.9 ± 0.4 mPa·s.
Same read-out and setting: the result for `CCCCc1cccc[n+]1CC.O=S(=O)([N-]S(=O)(=O)C(F)(F)F)C(F)(F)F` reads 66.34 ± 0.44 mPa·s.
